Columns and labels:
[1] = in vivo; cited from earlier work
stress and hypoxia = conditions: 100-1000 mg/kg, cited from earlier work
head trauma in mice [2] = assay: Clinical evaluation (Neurological Severity Score) after closed head injury in mice; format: in vivo; conditions: mebicar 750 mg/kg i.p., 5 mice out of 9, spontaneous recovery 2 out of 10 (20%)
Description: (§1) The cerebroprotective effect of mebicar was assessed in a model of head trauma in mice (Beni-Adani et al., 2001). This type of trauma produces brain edema (i.e. increase in water content), breakdown of the blood brain barrier (BBB) and clinical dysfunction. The clinical status of the mice is evaluated 1 and 24 hours after injury along with measurement of the extent of cerebral edema. The neurological deficit, assessed by a set of criteria termed the Neurological Severity Score (NSS), is maximal at 1 hour after the initiation of head trauma. The NSS slowly decreases over time from the initiation of head trauma, with the gradual spontaneous recovery of the mice.
(i) Induction of closed head injury (CHI) in a mice model. […]
(ii) Clinical evaluation of the mice after CHI. Mice were evaluated to define the severity of injury and functional recovery by using a set of clinical criteria. […]
For assessment of posttraumatic neurological impairment, a Neurological Severity Score (NSS) previously described, modified and validated, was used (Shapira et al. 1988; Chen et al. 1996; Beni-Adani et al. 2001). […] The ΔNSS, calculated as the difference between NSS at 1 h and the NSS at any later time-point, is a parameter which reflects the degree of spontaneous recovery following brain injury, as described (Chen et al., 1996; Yatsiv et al., 2002; Beni-Adani et al., 2001). […]

experimental arrhythmias = conditions: in vivo; cited from earlier work
[3] = in vivo; cited from earlier work; remark: listed apart in the source
head trauma in mice [4] = assay: Brain edema (tissue water content) after closed head injury in mice; format: in vivo
Description: as §1
(i) Induction of closed head injury (CHI) in a mice model. Male Sabra mice (strain from Hebrew University of Jerusalem, Israel), weighing 35 to 45 g, were used. CHI was induced under ether anesthesia. A metal rod weighing 333 g was allowed to free fall from a prefixed height (at 3 cm for a mouse weighing 28-32 g) over the exposed skull covering the left hemisphere in the midcoronal plane. The tip of the rod is covered with silicone, and it delivers the impact to the head that is fixed on the bottom plane of the trauma device. Sham-operated mice were anesthetized, their skull exposed, but trauma was not induced. After CHI the mice were assigned to vehicle or mebicar treatment.
(iii) Evaluation of water content (brain edema). The extent of cerebral edema was evaluated by determining the tissue water content in the injured hemisphere, as previously described (Beni-Adani et al., 2001). Briefly, mice were sacrificed 24 h after injury, the time of peak edema formation, and brain cortical samples of ˜20 mg were cut from the left (traumatized) and right (contralateral) hemispheres, from the site bordering the lesion. The right (non-injured) hemisphere was used as an internal control. Samples were weighed before and after drying in a desiccated oven for 24 h at 95° C. After weighing the “dried” sections, the brain water content was calculated as % H2O=[(wet weight−dry weight)×100]/wet weight.
(iv) Evaluation of drug effect on brain edema. In order to evaluate the effect of a drug, and to do it in a “clinical-relevant” setting, the drug is given 1 h after the injury, immediately after the initial assessment of NSS. This protocol allows a homogenous distribution of the mice between the drug and vehicle treatments, and ensures similar severity of injury in both groups. NSS is then evaluated again at 24 h after injury, and ΔNSS is calculated. The mice are then sacrificed, their brain removed and cortical segments from the site of injury, and contralaterally, are taken for evaluation of edema, as described above in (iii). […]

shock = conditions: in vivo; cited from earlier work
myocardial contractility = conditions: in vivo; cited from earlier work
[5] = test system: neuroactive amino acids in the animal's brain; conditions: cited from earlier work

Compound: CN1C(=O)N(C)C2C1N(C)C(=O)N2C (centres unmarked) [mebicar, 2,4,6,8-tetramethyl-2,4,6,8-tetraazabicyclo[3.3.0]-octane-3,7-dione]
- metabolism [1]: not metabolized
- time to leave the organism [1]: ≤ 24 h
- effect on parameters of body function under extreme conditions (stress and hypoxia; stress and hypoxia): protective action
- effect on muscle tone, movement coordination, working capacity (stress and hypoxia; tested animals): without affecting the muscle tone, movement coordination or working capacity
- recovery in clinical function (share of mice) (head trauma in mice [2]): 55.5%
- effect in experimental arrhythmias (experimental arrhythmias): protective action
- toxicity [3]: extremely low toxicity
- Water content in the brain % (contralateral hemisphere) (head trauma in mice [4]; mice, closed head injury, mebicar 750 mg/kg intraperitoneally 1 h after injury, 24 h after injury, contralateral hemisphere, M ± SE): 77.9 ± 0.27%
- Water content in the brain % (traumatized area) (head trauma in mice [4]; mice, closed head injury, mebicar 750 mg/kg intraperitoneally 1 h after injury, 24 h after injury, traumatized area, M ± SE): 80.7 ± 0.41%
- effect on water content of the contralateral hemisphere (head trauma in mice [4]; traumatized mice, mebicar 750 mg/kg i.p.): decreased water content up to normal parameters
- less water accumulated in the traumatized hemisphere of the brain (head trauma in mice [4]; traumatized mice, mebicar 750 mg/kg i.p., versus untreated traumatized mice): About 35%
- effect in shock; acid-base and oxygen homeostasis (shock): antishock action
- effect on myocardial contractility (myocardial contractility): increase the myocardial contractility
- change of balance of neuroactive amino acids in the brain [5]: raising the content of gamma-butyric acid
